Patent US12435069B2, “Cocrystals of posaconazole, methods of making and using same” (REGENTS OF THE UNIVERSITY OF MICHIGAN, priority 2019, dated 2025)
In brackets after ≈: the same amount, converted by molar mass. Several values for one entry are separate records, joined by “and”; a condition that tells them apart may be missing. Equal values may be shown once. Read-outs that look alike come from different tables or passages of the source.

Assays:
[1] = Dissolution of drug or cocrystal in biorelevant media (FaSSIF, FeSSIF); type: physicochemical; conditions: for Cmax / AUC (area under the dissolution curve): 25 °C; for Cmax: 150 rpm, 3 h, 300 mg dose in 250 mL equivalent; for AUC (area under the dissolution curve): up to 180 min; for Final pH: after dissolution
Procedure: (§1) Blank FaSSIF (pH 6.50 phosphate buffer) was prepared at room temperature by dissolving 0.683 g of NaOH (pellets), 7.902 g of NaH2PO4·H2O, and 12.372 g NaCl in 2 L of purified deionized (DI) water. The pH was adjusted to 6.50 (±0.04) with 1 M NaOH and 1 M HCl solutions. Blank FeSSIF (pH 5.00 acetate buffer) was prepared at room temperature by dissolving 8.089 g NaOH (pellets), 16.4 mL acetic acid, and 23.748 g NaCl in 2 L of purified DI water. The pH was adjusted to 5.00 (±0.03) with 1 M NaOH and 1 M HCl solutions. FaSSIF and FeSSIF media were prepared by dissolving appropriate amounts of FaSSIF/FeSSIF powder in the blank media according to the manufacturer, then stored at room temperature and used within 48 hours. Blank FaSSGF (pH 1.60 buffer) was prepared at room temperature by dissolving 1.999 g of sodium chloride in 1 L of DI water. The pH was adjusted to 1.60 (±0.05) with 2 M HCl solution.
Dissolution studies of drug or cocrystal were conducted using an overhead stirrer with a glass propeller at 150 rpm over three hours. Based on a 300 mg dose in 250 mL, 36 mg of PSZ drug or 46.6 mg PSZ-4ABA cocrystal (molar equivalent PSZ amount) were added to 30 mL of dissolution media. Dissolution studies were done in FaSSIF and FeSSIF with sieved fractions of drug and cocrystals in a particle size range of 106 to 125 μm. The dissolution experiments were conducted in a water bath at 25.0 (±0.5) ° C. Initial and final solution pH was measured. Aliquots of 0.5 mL were taken with a syringe at time points up to 180 minutes. The solution samples were filtered through syringe filter with PvDF membrane of a pore size of 0.45 μm. The solution concentrations of drug and coformer were analyzed with a Waters HPLC equipped with a photodiode array UV detector. A Waters Atlantis C18 column with the dimension of 5 μm, 250×4.6 mm was used for separation. A gradient method using methanol and water with 0.1% trifluoroacetic acid was run with the flow rate set at 1 mL/min. […] The wavelengths used for the analytes were […] for PSZ, and 287 nm for 4ABA.

[2] = Cocrystal eutectic constant (Keu): coformer and drug concentrations at the eutectic point in buffers and biorelevant media; type: physicochemical; conditions: for solubility: thermodynamic from solid, read-out: [PSZ]eu (also solubility of drug at equilibrium); for solubility / Keu ([coformer]eu/[drug]eu) / [4ABA]eu (coformer concentration at the eutectic point): 25 °C
Procedure: as §1
Cocrystal eutectic constant (Keu), which is well recognized as a key stability and solubility indicator, was determined from measurement of coformer and drug concentrations at the eutectic point, where drug and cocrystal solid phases are in equilibrium with solution according to Keu=[coformer]eu/[drug]eu. An excess amount of PSZ (approximately 200 mg) and 150 mg of PSZ-4ABA were suspended in 3 mL of blank FaSSGF, blank FaSSIF, blank FeSSIF, FaSSIF, or FeSSIF media. Biorelevant media included FaSSIF and FeSSIF. Blank media was the buffer solution in the biorelevant media without the lecithin and bile salt. The suspensions were kept in a water bath at 25.0±0.1° C. and magnetically stirred for up to 72-96 hours. Sample solutions were filtered through 0.45 μm cellulose acetate filters and analyzed by HPLC. The pH was measured and the equilibrium solids were characterized by DSC and PXRD.
Keu is proportional to the cocrystal solubility advantage over drug (SA=Scc/Sdrug), and for a 2:3 cocrystal is given by
[formula] […] Scc is lower than Sdrug when Keu is lower than 1.5. See is equal to Sdrug when Keu is equal to 1.5. The higher the Keu value, the higher is the cocrystal solubility advantage over drug (SA) and Scc.

[3] = cited from earlier work
[4] = in vivo; cited from earlier work

For `CC[C@@H]([C@H](C)O)n1ncn(-c2ccc(N3CCN(c4ccc(OC[C@@H]5CO[C@@](Cn6cncn6)(c6ccc(F)cc6F)C5)cc4)CC3)cc2)c1=O` [PSZ, Posaconazole], the Cmax ([1]; FaSSIF) was 4.5 ± 0.2 µM, the “AUC (area under the dissolution curve)” value ([1]; FaSSIF) was 745 ± 18 µM·min and the “Final pH” value ([1]; FaSSIF) was 6.58 ± 0.01. The Cmax ([1]; FeSSIF) was 7 ± 3 µM, the “AUC (area under the dissolution curve)” value ([1]; FeSSIF) was 1190 ± 104 µM·min and the “Final pH” value ([1]; FeSSIF) was 4.95 ± 0.01. The solubility ([2]; aqueous buffer, Blank FaSSIF, final pH 5.12) was 0.1 ± 0.04 µM (≈ 0.0701 µg/mL), the solubility ([2]; aqueous buffer, Blank FeSSIF, final pH 5.11) was 0.12 ± 0.02 µM (≈ 0.0841 µg/mL) and the solubility ([2]; simulated gastric fluid, Blank FaSSGF, final pH 1.94) was 83 ± 4 µM (≈ 58.2 µg/mL). For the same molecule, the solubility ([2]; FaSSIF, final pH 5.07) was 3.6 ± 0.8 µM (≈ 2.52 µg/mL), the solubility ([2]; FeSSIF, final pH 5.03) was 18 ± 5 µM (≈ 12.6 µg/mL) and the “Log P” value [3] was 4.6. For the same molecule, the aqueous solubility [3] was less than 1 µg/mL and the fraction absorbed [4] was less than 30%.

With `CCC(C(C)O)n1ncn(-c2ccc(N3CCN(c4ccc(OCC5COC(Cn6cncn6)(c6ccc(F)cc6F)C5)cc4)CC3)cc2)c1=O.CCC(C(C)O)n1ncn(-c2ccc(N3CCN(c4ccc(OCC5COC(Cn6cncn6)(c6ccc(F)cc6F)C5)cc4)CC3)cc2)c1=O.Nc1ccc(C(=O)O)cc1.Nc1ccc(C(=O)O)cc1.Nc1ccc(C(=O)O)cc1` (centres unmarked) [PSZ-4ABA, posaconazole-4-aminobenzoic acid (PSZ-4ABA) cocrystal] the “RAUC (AUCPSZ-4ABA/AUCPSZ)” value ([1]; FaSSIF) was 4.1 and 4.1 ± 0.3, the Cmax ([1]; FaSSIF) was 48 ± 4 µM and the “AUC (area under the dissolution curve)” value ([1]; FaSSIF) was 3052 ± 209 µM·min. For the same molecule, the “Final pH” value ([1]; FaSSIF) was 6.37 ± 0.01, the “RAUC (AUCPSZ-4ABA/AUCPSZ)” value ([1]; FeSSIF) was 13 and 13 ± 4 and the Cmax ([1]; FeSSIF) was 148 ± 3 µM. The “AUC (area under the dissolution curve)” value ([1]; FeSSIF) was 15,670 ± 4612 μM × min, the “Final pH” value ([1]; FeSSIF) was 5.01 ± 0.01 and the “Keu ([coformer]eu/[drug]eu)” value ([2]; Blank FaSSGF, final pH 1.94) was 0.0028 ± 0.0002 ×10^5. For the same molecule, the “[4ABA]eu (coformer concentration at the eutectic point)” value (shortened to “[4ABA]eu”) ([2]; Blank FaSSGF, final pH 1.94) was 27.3 ± 0.4 mM, the “Final pH (pH at equilibrium)” value ([2]; Blank FaSSGF, initial pH 1.60) was 1.94 ± 0.01 and the “Keu ([coformer]eu/[drug]eu)” value ([2]; Blank FaSSIF, final pH 5.12) was 1.7 ± 0.6 ×10^5. The “[4ABA]eu” value ([2]; Blank FaSSIF, final pH 5.12) was 17.4 ± 0.1 mM, the “Final pH (pH at equilibrium)” value ([2]; Blank FaSSIF, initial pH 6.55) was 5.12 ± 0.03 and the “Keu ([coformer]eu/[drug]eu)” value ([2]; Blank FeSSIF, final pH 5.11) was 1.2 ± 0.3 ×10^5. For the same molecule, the “[4ABA]eu” value ([2]; Blank FeSSIF, final pH 5.11) was 14.5 ± 0.2 mM, the “Final pH (pH at equilibrium)” value ([2]; Blank FeSSIF, initial pH 5.03) was 5.11 ± 0.01 and the “Keu ([coformer]eu/[drug]eu)” value ([2]; FaSSIF, final pH 5.07) was 0.06 ± 0.01 ×10^5. The “[4ABA]eu” value ([2]; FaSSIF, final pH 5.07) was 20.2 ± 0.4 mM, the “Final pH (pH at equilibrium)” value ([2]; FaSSIF, initial pH 6.50) was 5.07 ± 0.04 and the “Keu ([coformer]eu/[drug]eu)” value ([2]; FeSSIF, final pH 5.03) was 0.010 ± 0.003 ×10^5. For the same molecule, the “[4ABA]eu” value ([2]; FeSSIF, final pH 5.03) was 17.3 ± 0.5 mM, the “Final pH (pH at equilibrium)” value ([2]; FeSSIF, initial pH 5.03) was 5.03 ± 0.14 and the “decrease of Sco (cocrystal solubility) with pH” value ([2]; pH increases from 1.9 to 5.1) was 20 times.
